The values below come from US20100035793A1, “Modulators” (priority 2005, published 2010).

Non-standard residues stand in square brackets, D forms with d. No end group written: not given here. pY = N[C@@H](Cc1ccc(OP(=O)(O)O)cc1)C(=O)O

Data set [1] concerns the target JAK2 (Homo sapiens, UniProt O60674). Particulars: cited from earlier work.
Data set [2] deals with T1, Stat3 (Homo sapiens, UniProt P40763). Particulars: cited from earlier work.
Target sequence in this assay (P40763 whole entry, species assumed): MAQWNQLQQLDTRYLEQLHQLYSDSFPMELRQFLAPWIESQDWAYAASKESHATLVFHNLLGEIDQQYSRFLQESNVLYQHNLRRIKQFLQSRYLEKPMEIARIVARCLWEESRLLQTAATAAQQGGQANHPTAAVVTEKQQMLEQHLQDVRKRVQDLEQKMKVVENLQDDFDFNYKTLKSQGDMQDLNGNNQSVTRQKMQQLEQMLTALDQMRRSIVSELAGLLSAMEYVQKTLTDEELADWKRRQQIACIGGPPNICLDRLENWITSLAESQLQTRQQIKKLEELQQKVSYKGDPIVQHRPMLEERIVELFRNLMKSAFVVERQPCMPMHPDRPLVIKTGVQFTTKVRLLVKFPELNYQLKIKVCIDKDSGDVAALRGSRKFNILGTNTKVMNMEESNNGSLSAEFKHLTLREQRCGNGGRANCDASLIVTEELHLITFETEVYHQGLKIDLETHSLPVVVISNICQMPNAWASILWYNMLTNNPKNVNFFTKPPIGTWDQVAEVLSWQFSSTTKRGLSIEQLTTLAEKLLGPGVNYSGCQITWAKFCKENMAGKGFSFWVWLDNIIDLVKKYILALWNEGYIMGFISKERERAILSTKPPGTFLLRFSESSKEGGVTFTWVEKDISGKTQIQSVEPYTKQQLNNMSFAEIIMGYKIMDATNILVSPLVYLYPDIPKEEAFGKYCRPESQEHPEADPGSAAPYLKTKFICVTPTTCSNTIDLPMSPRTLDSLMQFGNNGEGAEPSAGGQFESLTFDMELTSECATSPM
Data set [3] concerns A549 tumor. The note with it: nude mice; cited from earlier work.
Data set [4] addresses T1, Stat3. In words: Western blot of Stat3 phosphorylation and expression in KF48 treated with Cucurbitacin I. The class given is cell-based. On the set-up: primary fibroblasts derived from normal skin and keloid tissues were further examined; endogenous in cells; host or cells: KF48 primary keloid fibroblasts. On the procedure: (§1) Inhibition of Stat3 was also evaluated by incubating KF48 for 30 min with various doses of Cucurbitacin I, an inhibitor of Jak2/Stat3 activation (32), or with DMSO alone as a control, followed by further incubation in normal growth media for 48 h. […] Cucurbitacin I was acquired from Galchimia (A Corufia, Spain).
(§2) Western blot. Cells were either harvested in radioimmune precipitation assay (RIPA) buffer (150 mM NaCl, 50 mM Tris-HCl, pH 7.2, 1% deoxycholic acid, 1% Triton X-100, 0.25 mM EDTA, pH 8.0) containing protease inhibitor cocktail (Roche Diagnostics Corporation, Indianapolis, Ind., USA), or lysis buffer containing 150 mM NaCl, 10 mM Tris-HCl, pH 7.4, 0.5% Triton-X-100, 0.5% NP-40, 1 mM EDTA, 0.2 mM sodium vanadate, supplemented with protease inhibitor tablet. Total cell lysates were collected after centrifugation for 10 min at 4° C., and resolved in 7.5% or 10% polyacrylamide gel electrophoresis, and transferred to PVDF membranes (Bio-Rad Laboratories, Hercules, Calif., USA). The membranes were blotted with anti-phosphoTyr705 Stat3 antibody (1:1000 dilution; Cell Signaling, Beverly, Mass., USA) overnight at 4° C. overnight in PBS containing 1% BSA and 0.1% Tween 20, washed with PBS containing 0.2% Tween 20, and incubated with secondary anti-rabbit IgG antibody (1:2000 dilution; Sigma, Saint Louis, Mo., USA) for 1 h at room temperature, washed with PBS containing 0.2% Tween 20, followed by enhanced chemiluminescence (Amersham Biosciences, Buckinghamshire, UK) or Lumi-Light (Roche Diagnostics Corporation, Indianapolis, USA), and autoradiography. The membranes were stripped with Restore Western Blotting Stripping Buffer (Pierce, Rockford, Ill., USA) according to manufacturer's instructions and reblotted with anti-phosphoSer727 Stat3 (1:1000 dilution; Cell Signaling, Beverly, Mass., USA) and secondary anti-mouse IgG antibody (1:2000 dilution; Sigma, Saint Louis, Mo., USA). The stripping and reblotting procedure was repeated with monoclonal anti-Stat3 (1:1000 dilution; BD Transduction Laboratories), polyclonal anti-actin (1:1000 dilution; Sigma) and monoclonal anti-collagen antibody (1:1000 dilution; MONOSAN).
Target sequence in this assay (P40763 whole entry): as the sequence (P40763 whole entry, species assumed) above

Data set [5] concerns collagen. The experiment in a line: Western blot of collagen production in KF48 keloid fibroblasts. The class given is cell-based, human. Particulars: KF48, Cucurbitacin I 30 min then 48 h in growth media, FIG. 5B. As to the method:
These vectors containing Stat3 siRNA targets and empty vector were transfected into 293T-based Phoenix-Ampho packaging cell line for 7-9 h, and the amphotropic retroviruses were harvested 48 h later, pelleted to remove nonadherent cells and cellular debris, and filtered through a […] cellulose acetate membrane. The keloid fibroblasts were infected overnight in the presence of 4 μg/ml polybrene, and replaced with fresh 10% FBS/DMEM the following day. Cells were assayed for Western blot 48 h after infection, or for XTT cell proliferation, or for migration assay which was performed by replating the cells into 8 μM Transwell membrane and fixed 24 h later as described above.
as §1
as §2, with “The membranes were stripped with Restore Western Blotting Stripping Buffer (Pierce, Rockford, Ill., USA) according to manufacturer's instructions and reblotted with anti-phosphoSer727 Stat3 (1:1000 dilution; Cell Signaling, Beverly, Mass., USA) and secondary anti-mouse IgG antibody (1:2000 dilution; Sigma, Saint Louis, Mo., USA). The stripping and reblotting procedure was repeated with monoclonal anti-Stat3 (1:1000 dilution; BD Transduction Laboratories), polyclonal anti-actin (1:1000 dilution; Sigma) and monoclonal anti-collagen antibody (1:1000 dilution; MONOSAN).” left out
Methods of assessing polypeptides regulated by STAT Collagen may be regulated by STAT 3 activation. monoclonal anti-human collagen I, II, III Was purchased from MONOSAN (Uden, Netherlands). […] These were detected via western blot as described above.
On the technique in general: In western blotting, separated proteins are transferred to a membrane and probed.

The test system of data set [6] is A549 human lung carcinoma cells. On the set-up: dose or concentration left out as unconfirmed. Particulars: Cucurbitacin I for 24 h; cited from earlier work.
For data set [7], the system named is KF48 keloid fibroblasts. The experiment in a line: Scratch-wound migration assay. The format is cell-based, human. As to the method:
Cell migration in keloidflbroblasts is inhibited by Stat3 siRNA and Cucurbitacin I. To examine the role of Stat3 in cell migration of skin fibroblasts, KF48 cells were infected with retrovirus expressing Stat3 siRNAs and scratch assays were performed as previously described. […] Three non-overlapping fields were acquired, and graphically illustrated as mean±SD in FIG. 8B. Transmembrane cell migration assays were also performed in triplicates as described earlier, and quantified as mean±SD (FIG. 8C). […] The right panels in FIG. 8B and 8C depict immunoblots of Stat3 and actin to show the efficiencies of inhibition by the Stat3 siRNAs.
The role of Stat3 in cell migration was also examined using Cucurbitacin I in the scratch assay. KF48 cells were first incubated with 10 μg/ml mitomycin C for 2 h, before treating for 30 min with DMSO or 1 μM Cucurbitacin I. The scratch-wound was performed, followed by further incubation in normal growth media. Pictures were taken at 0 h, 22 h and 48 h after wounding.
Migration assay. For migration assay using the scratch method, cells were grown to confluence and incubated with 10 μg/ml mitomycin C for 2 h, before a scratch wound was introduced using a yellow pipette tip. Cells were further incubated in normal growth media and pictures were taken at 0 h, 14 h, 15 h, 22 h, or 48 h after wounding. Three non-overlapping fields were captured by Axiovert 135 microscope from Zeiss and cells migrated into the wound site were counted and presented as mean±SD.

For data set [8], the system named is KF48 keloid fibroblasts. In words: XTT proliferation assay. The format is cell-based, human. The text has this: Inhibition of Stat3 decreases cell proliferation. Enhanced fibroblast proliferation is a characteristic of keloid tissue. In agreement with this, keloid fibroblasts grown in normal culture conditions proliferated faster than normal fibroblasts, as observed in KF48 and KF107 compared to NF2 and NF4 (FIG. 6A). To investigate whether Stat3 is involved in the enhanced keloid fibroblast proliferation, KF48 was infected with retrovirus expressing Stat3 siRNAs, and cell proliferation was examined. […] XTT proliferation assay. Cells seeded at 3,000 cells/well in 96-well plates and grown in normal growth conditions, or infected with retroviral Stat3 siRNAs, were assayed for proliferation using the XrT proliferation kit (Roche) according to the manufacturer's instructions. The readings were taken at 450 nm and referenced against 690 nm, 2 h after the addition of the XrT reagent. Each sample was performed at quadruplicates in two to three independent experiments. Data are presented as mean±SD
Cell proliferation was also investigated by treating KF48 cells with various doses of Cucurbitacin I or with DMSO control, before incubating in normal growth media and examined daily over 4 days. Cucurbitacin I concentration as low as I μM was able to inhibit cell proliferation of KF48 compared to DMSO and untreated control (0 μM), whereas Cucurbitacin I exposure at 5 μM and above seemed to cause cell death (FIG. 6C).
In general terms: Tetrazolium assays rely on reduction of a dye to a coloured formazan, in cell work by metabolically active cells.

Data set [9] concerns the target T1, Stat3. The note with it: cited from earlier work. This is another data set of the same source.
Target sequence in this assay (P40763 whole entry, species assumed): as above
The subject of data set [10] is STAT 5. Particulars: peptide present in nuclear extracts; cited from earlier work.
Where [11] appears, read: KF48, 30 min treatment then 48 h in growth media, FIG. 5B.

JAK2, sequence (O60674 whole entry, species assumed): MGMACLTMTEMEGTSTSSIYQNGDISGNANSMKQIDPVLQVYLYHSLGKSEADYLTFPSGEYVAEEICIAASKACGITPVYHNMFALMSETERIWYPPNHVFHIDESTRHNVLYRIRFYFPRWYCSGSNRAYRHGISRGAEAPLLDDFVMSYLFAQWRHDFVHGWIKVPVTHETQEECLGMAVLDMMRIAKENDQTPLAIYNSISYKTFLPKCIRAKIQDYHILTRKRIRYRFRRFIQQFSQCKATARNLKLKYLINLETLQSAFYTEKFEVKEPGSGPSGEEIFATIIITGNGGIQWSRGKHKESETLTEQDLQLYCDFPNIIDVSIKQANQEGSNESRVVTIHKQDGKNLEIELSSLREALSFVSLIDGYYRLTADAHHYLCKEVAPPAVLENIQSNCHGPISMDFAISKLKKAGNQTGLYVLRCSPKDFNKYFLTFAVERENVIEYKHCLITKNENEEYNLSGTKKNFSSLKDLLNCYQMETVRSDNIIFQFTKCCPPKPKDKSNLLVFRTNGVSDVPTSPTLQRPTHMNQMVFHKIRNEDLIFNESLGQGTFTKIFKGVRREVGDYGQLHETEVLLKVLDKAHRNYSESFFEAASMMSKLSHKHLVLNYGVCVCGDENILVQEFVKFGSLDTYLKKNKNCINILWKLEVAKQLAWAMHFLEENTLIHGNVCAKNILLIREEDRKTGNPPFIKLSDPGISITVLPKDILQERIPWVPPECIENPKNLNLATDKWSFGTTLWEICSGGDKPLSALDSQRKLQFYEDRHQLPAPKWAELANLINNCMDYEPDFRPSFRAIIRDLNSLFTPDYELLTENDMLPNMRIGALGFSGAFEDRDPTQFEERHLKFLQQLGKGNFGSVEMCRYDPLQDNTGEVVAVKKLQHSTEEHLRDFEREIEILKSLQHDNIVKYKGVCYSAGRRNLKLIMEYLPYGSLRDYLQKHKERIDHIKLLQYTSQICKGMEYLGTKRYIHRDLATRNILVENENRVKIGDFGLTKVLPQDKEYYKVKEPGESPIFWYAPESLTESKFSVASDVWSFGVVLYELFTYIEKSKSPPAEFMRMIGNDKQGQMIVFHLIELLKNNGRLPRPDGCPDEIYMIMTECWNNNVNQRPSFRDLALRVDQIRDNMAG

Consider `CC(C)(O)/C=C/C(=O)[C@](C)(O)[C@H]1[C@H](O)C[C@@]2(C)[C@@H]3CC=C4[C@@H](C=C(O)C(=O)C4(C)C)[C@]3(C)C(=O)C[C@]12C` [Cucurbitacin I], for which, in data set [1], the “inhibition of activation of JAK2” value was “inhibit” and the “potency on pJak2 relative to pSTAT 3” value is given as “more potent inhibitor of pJak2 than pSTAT 3”. Further, the “inhibition of activation of STAT 3” value in [2] was “inhibit”. In data set [3], the “inhibition of A549 tumor growth” value is 55.4%. Further, in data set [4] (KF48, 30 min treatment then 48 h), the “effective concentration as low as (inhibition of pY705 Stat3, pS727 Stat3 and collagen production)” value is listed as 1 μM. Further, the Stat3 expression result in data set [4] (KF48, 30 min treatment then 48 h, FIG. 5B) was “dose-dependent decrease”. In addition, in data set [4] (setting [11]), the “inhibition of pS727 Stat3” value is reported as “dose-dependent inhibition” and the “inhibition of pY705 Stat3” value was “dose-dependent inhibition”. The “inhibition of collagen production” value in [5] was “dose-dependent inhibition”. In data set [6], the apoptosis is on record as 9.8% and the tumor cell death is 33%. In addition, the “cell migration at 22 h” value in data set [7] (1 μM for 30 min, 22 h after wounding, vs DMSO, P<0.001) is on record as “significant reduction in cell migration”. Moreover, in data set [7] (1 μM for 30 min, 48 h after wounding, vs DMSO), the “cell migration at 48 h” value was “delayed migration”. Besides, the “migration of KF48, scratch assay” value in [7] (1 μM for 30 min, compared to DMSO control, FIG. 8D) is “decelerated the migration”. In addition, the “concentration as low as, effective in decreasing rate of migration to that of normal fibroblasts” value in data set [7] (keloid fibroblasts) stood at 1 µM. The “exposure that seemed to cause cell death” value in [8] (KF48, FIG. 6C) is at least 5 µM. Further, the “concentration as low as, able to inhibit cell proliferation” value in data set [8] (KF48, examined daily over 4 days, vs DMSO and untreated) amounted to 1 µM. The “observations at higher doses” value in data set [8] (higher doses, FIGS. 6C and 8D) was “cell morphology changes and the beginning of some cell death”.

Regarding “PY*LKTK: Stat3 SH2 domain-binding phosphopeptide, Y* represents phosphotyrosine (P[pY]LKTK; UniProt P40763 704-709, looked up, fragment)”, in data set [9], the “STAT 3 biochemical activity and biological function” value is “inhibit”. In addition, the “levels of DNA binding activities of STAT 3” value in [9] (peptide present in nuclear extracts) was “significant reduction”. For the same molecule, the “levels of DNA binding activities of STAT 5” value in data set [10] is given as “no effect”.
